In US12227653B2, “Fluorinated coumarins” (3M INNOVATIVE PROPERTIES COMPANY, priority 2019, dated 2025):
≈ marks a conversion by molar mass, not a printed value.

Assays:
Format in all cases: physicochemical
UV/Vis Test Method = details: diluted into HFE 7200, 1 cm quartz cuvette
Experimental: Unless otherwise mentioned, the sample was diluted into HFE 7200 and spectra were collected on an Ultraviolet-Visible (UV/Vis) spectrometer (available under the trade designation “CARY 8454” from Agilent Technologies, Inc, Santa Clara, CA) using 1 cm quartz cuvettes.

Fluorescence Test Method = details: in CHCl3 instead of HFE 7200
Experimental: Unless otherwise mentioned, the sample was diluted into HFE 7200 and spectra were collected on a fluorimeter (available under the trade designation “FLUOROLOG 3-21 HR” from Jobin-Yvon Horiba, Inc., Edison, NJ) in a 1 cm fluorescence cuvette under the following experimental parameters: • Orientation: 10 degree (front face) • EX Slit Width: 1.0 nm • EM Slit Width: 1.0 nm • EX Data Interval: 5 nm • EM Data Interval: 5 nm • EX Wavelength range: 300 nm to 500 nm • EM Wavelength range: 400 nm to 650 nm

[1] = Solubility Test Method in fluorinated fluids; details: for solubility: organic solvent or mixture, thermodynamic from solid
Experimental: For compounds 4 and 5, a known amount of material was weighed into a scintillation vial and 1 mL of each solvent was volumetrically added followed by sonication for dissolution. For samples that completely dissolved, the formed solution was then added to additional aliquots of sample in an attempt to generate a saturated solution. […] In the case of compound 8, approximately 100 mg was suspended in 10 mL of each solvent and shaken for 1-2 h, after which the solution was filtered via syringe filter into a tared vial and the solution mass measured. The solvent was evaporated in vacuo and the mass of the remaining residue was recorded.
These samples were repeated using less mass of Molecule 5. […] It is believed that some molecules may have a tendency to gel at high concentrations (e.g., the molecule comprises more than 50 wt % of the composition).

SMILES: Cc1cc(=O)oc2cc(OCCCCCN(C)S(=O)(=O)C(F)(F)C(F)(F)C(F)(F)C(F)(F)F)ccc12 [Molecule 8]
- λmax from the UV/Vis test (UV/Vis Test Method): 320 nm
- fluorescence emission λmax (Fluorescence Test Method): 380 nm
- fluorescence excitation λ (Fluorescence Test Method): 320 nm
- solubility ([1]; solvent HFE 7200): 1570 µg/mL (≈ 2.82 mM)
- solubility ([1]; solvent PF-5052): 4070 µg/mL (≈ 7.3 mM)
- Solubility (g/mL) ([1]; solvent FC-70): Insoluble
- wt % of solution ([1]; solvent FC-70): 0 wt %
- wt % of solution ([1]; solvent HFE 7200): 0.1 wt %
- wt % of solution ([1]; solvent PF-5052): 0.2 wt %
